The structures appear in SMILES notation. Where a name gives a salt, the structure may show the parent alone.

The target in this assay is T1, human recombinant ROCK II (Homo sapiens, UniProt O75116).
T1 construct: recombinant human ROCK-II residues 11-552; His6 (N); purchased Upstate Ltd., Dundee, UK
Description: Determination of Rho Kinase Inhibition (ROCK II, Caliper peptide phosphorylation assay). The assay is classed as biochemical. Conditions: 60 min incubation at 32° C., respective form (salt or free base) as obtained in the examples. As to the method:
Determination of Rho Kinase Inhibition
To measure Rho-kinase inhibition, IC50 values were determined according to the following protocol:
Active human recombinant ROCK II (N-terminal His6-tagged recombinant human ROCK-II residues 11-552) was purchased from Upstate Ltd., Dundee, UK. The peptide substrate, Fluorescein-AKRRRLSSLRA-COOH, was obtained from JPT Peptide Technologies, Berlin, Germany. Adenosine-5′-triphosphate (ATP), bovine serum albumine (BSA), dimethylsulphoxide (DMSO), 4-(2-Hydroxyethyl)piperazine-1-ethanesulfonic acid (Hepes), Brij-35 and dithiothreitol (DTT) were purchased from Sigma-Aldrich, Munich, Germany. Tris(hydroxymethyl)-aminomethane (Tris), magnesium chloride, NaOH, 1M HCl and EDTA were obtained from Merck Biosciences, Darmstadt, Germany. “Complete” protease inhibitor was from Roche Diagnostics, Mannheim, Germany.
Test compounds were diluted to the appropriate concentrations in buffer 1 (25 mM Tris-HCl, pH 7.4, 5 mM MgCl2, 2 mM DTT, 0.02% (w/v) BSA and 3% DMSO). The ROCK II enzyme was diluted to a concentration of 100 ng/ml in buffer 2 (25 mM Tris-HCl, pH 7.4, 5 mM MgCl2, 2 mM DTT and 0.02% (w/v) BSA). The peptide substrate and ATP were diluted to concentrations of 3 μM and 120 μM, respectively, in the buffer 2. Two μl of the compound solution were mixed with 2 μl of the diluted enzyme in a 384-well small volume microtiter plate (Greiner, Bio-One, Frickenhausen, Germany), and the kinase reaction was initiated by addition of 2 μl of the solution containing peptide substrate and ATP. After 60 min incubation at 32° C., the reaction was stopped by addition of 20 μl of a solution containing 100 mM Hepes-NaOH, pH 7.4, 0.015% (v/v) Brij-35, 45 mM EDTA and 0.227% chip coating reagent 1 (Caliper Lifescience Inc, Hopkinton, Mass.). Phosphorylation of the substrate peptide was then detected on a Caliper 3000 instrument essentially as described by Pommereau et al (J. Biomol. Screening 9(5), 409-416, 2004). Separation conditions were as follows: Pressure −1.3 psi, upstream voltage −1562 V, downstream voltage −500 V, sample sip time 200 ms. Positive controls (buffer 1 instead of compound) and negative controls (buffer 1 instead of compound and buffer 2 instead of ROCK II) were run in parallel on each plate. The following products/compounds were tested in said assay by using the respective form (salt or free base) obtained as in the examples described above and the following activities were measured.

T1 sequence (O75116 11-552): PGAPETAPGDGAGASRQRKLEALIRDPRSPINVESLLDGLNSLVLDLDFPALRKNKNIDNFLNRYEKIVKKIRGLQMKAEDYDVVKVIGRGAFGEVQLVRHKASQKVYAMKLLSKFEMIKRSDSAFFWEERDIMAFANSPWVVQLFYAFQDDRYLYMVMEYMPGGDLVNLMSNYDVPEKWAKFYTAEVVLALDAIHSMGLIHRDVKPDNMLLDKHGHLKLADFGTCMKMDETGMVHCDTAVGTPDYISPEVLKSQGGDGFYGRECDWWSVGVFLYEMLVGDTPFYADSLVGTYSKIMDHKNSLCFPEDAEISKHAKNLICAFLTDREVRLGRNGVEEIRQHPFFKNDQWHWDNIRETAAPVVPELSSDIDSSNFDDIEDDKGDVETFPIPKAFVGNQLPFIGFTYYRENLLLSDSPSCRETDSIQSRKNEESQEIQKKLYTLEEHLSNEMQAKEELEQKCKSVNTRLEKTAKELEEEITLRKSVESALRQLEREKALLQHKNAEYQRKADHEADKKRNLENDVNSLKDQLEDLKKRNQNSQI

Consider `Clc1cc2cnccc2cc1SC1CCCNC1` (racemic) [Example 269, (Rac)-7-Chloro-6-(piperidin-3-ylsulfanyl)-isoquinoline hydrochloride], for which the IC50 is not above 1000 nM.

`Brc1cc2cnccc2cc1SC1CCCNCC1` (racemic) [Example 271, (Rac)-6-(Azepan-4-ylsulfanyl)-7-bromo-isoquinoline hydrochloride]: the 50% inhibitory concentration (IC50) was not above 1000 nM.

On to `CN(c1ccc2cnccc2c1)C1CCN(CCC(F)(F)F)CC1` [Example 99, Isoquinolin-6-yl-methyl-[1-(3,3,3-trifluoro-propyl)-piperidin-4-yl]-amine], for which the IC50 is 1000 to 10000 nM.

Consider `c1cc2cc(N[C@@H]3CCCN(CC4CC4)C3)ccc2cn1` [Example 166, ((R)-1-Cyclopropylmethyl-piperidin-3-yl)-isoquinolin-6-yl-amine], for which the concentration for half-maximal inhibition (IC50) is 1000 to 10000 nM.

`c1cc2cc(N[C@@H]3CCCN(CC4CCCCC4)C3)ccc2cn1` [Example 169, ((R)-1-Cyclohexylmethyl-piperidin-3-yl)-isoquinolin-6-yl-amine]: the IC50 was 1000 to 10000 nM.

On to `CCCN1CCC[C@@H](Nc2ccc3c(=O)[nH]ccc3c2)C1` [Example 195, 6-((R)-1-Propyl-piperidin-3-ylamino)-2H-isoquinolin-1-one], for which the IC50 is 1000 to 10000 nM.

Consider `CCCCN1CCC[C@@H](Nc2ccc3c(=O)[nH]ccc3c2)C1` [Example 196, 6-((R)-1-Butyl-piperidin-3-ylamino)-2H-isoquinolin-1-one], for which the IC50 is not above 1000 nM.

With `CC(C)CCN1CCC[C@@H](Nc2ccc3c(=O)[nH]ccc3c2)C1` [Example 199, 6-[(R)-1-(3-Methyl-butyl)-piperidin-3-ylamino]-2H-isoquinolin-1-one], the IC50 was not above 1000 nM.

Consider `O=c1[nH]ccc2cc(N[C@@H]3CCCN(Cc4ccccc4)C3)ccc12` [Example 207, 6-((R)-1-Benzyl-piperidin-3-ylamino)-2H-isoquinolin-1-one], for which the IC50 is not above 1000 nM.

On to `O=c1[nH]ccc2cc(N[C@@H]3CCCN(Cc4ccncc4)C3)ccc12` [Example 213, 6-((R)-1-Pyridin-4-ylmethyl-piperidin-3-ylamino)-2H-isoquinolin-1-one], for which the IC50 was 1000 to 10000 nM.

On to `O=c1[nH]ccc2cc(N[C@@H]3CCCN(Cc4ccccn4)C3)ccc12` [Example 215, 6-((R)-1-Pyridin-2-ylmethyl-piperidin-3-ylamino)-2H-isoquinolin-1-one], for which the IC50 is 1000 to 10000 nM.

With `O=c1[nH]ccc2cc(N[C@@H]3CCCN(Cc4ccc5ccccc5c4)C3)ccc12` [Example 218, 6-((R)-1-Naphthalen-2-ylmethyl-piperidin-3-ylamino)-2H-isoquinolin-1-one], the IC50 is not above 1000 nM.

Consider `O=c1[nH]ccc2cc(N[C@H]3CCN(Cc4cccc(Cl)c4F)C3)ccc12` [Example 220, 6-[(S)-1-(3-Chloro-2-fluoro-benzyl)-pyrrolidin-3-ylamino]-2H-isoquinolin-1-one], for which the IC50 was not above 1000 nM.

With `O=c1[nH]ccc2cc(N[C@H]3CCN(CC4CC4)C3)ccc12` [Example 226, 6-((S)-1-Cyclopropylmethyl-pyrrolidin-3-ylamino)-2H-isoquinolin-1-one], the IC50 is not above 1000 nM.

As to `O=c1[nH]ccc2cc(N[C@H]3CCN(Cc4cc(Cl)cc(Cl)c4)C3)ccc12` [Example 234, 6-[(S)-1-(3,5-Dichloro-benzyl)-pyrrolidin-3-ylamino]-2H-isoquinolin-1-one], the IC50 is 1000 to 10000 nM.

As for `Cc1ccc(CN2CC[C@H](Nc3ccc4c(=O)[nH]ccc4c3)C2)cc1` [Example 236, 6-[(S)-1-(4-Methyl-benzyl)-pyrrolidin-3-ylamino]-2H-isoquinolin-1-one], the IC50 was not above 1000 nM.

As for `O=c1[nH]ccc2cc(N[C@H]3CCN(Cc4ccc5ccccc5c4)C3)ccc12` [Example 243, 6-((S)-1-Naphthalen-2-ylmethyl-pyrrolidin-3-ylamino)-2H-isoquinolin-1-one], the IC50 is not above 1000 nM.

Turning to `Cn1cc(CN2CC[C@H](Nc3ccc4c(=O)[nH]ccc4c3)C2)cn1` [Example 246, 6-[(S)-1-(1-Methyl-1H-pyrazol-4-ylmethyl)-pyrrolidin-3-ylamino]-2H-isoquinolin-1-one], the IC50 was 1000 to 10000 nM.

On to `O=c1[nH]ccc2cc(N[C@H]3CCN(CC4CCCNC4)C3)ccc12` (stereo partly drawn) [Example 248, 6-((S)-1-Piperidin-3-ylmethyl-pyrrolidin-3-ylamino)-2H-isoquinolin-1-one], for which the IC50 was 1000 to 10000 nM.

As for `O=c1[nH]ccc2cc(NC3CN(Cc4cccc(Cl)c4F)C3)ccc12` [Example 249, 6-[1-(3-Chloro-2-fluoro-benzyl)-azetidin-3-ylamino]-2H-isoquinolin-1-one], the IC50 is not above 1000 nM.

With `CC(C)N1CC(Nc2ccc3c(=O)[nH]ccc3c2)C1` [Example 251, 6-(1-Isopropyl-azetidin-3-ylamino)-2H-isoquinolin-1-one], the IC50 is 1000 to 10000 nM.

Take `O=c1[nH]ccc2cc(NC3CN(CC4CC4)C3)ccc12` [Example 253, 6-(1-Cyclopropylmethyl-azetidin-3-ylamino)-2H-isoquinolin-1-one]: the IC50 was 1000 to 10000 nM.

With `O=c1[nH]ccc2cc(NC3CN(Cc4ccccc4Cl)C3)ccc12` [Example 259, 6-[1-(2-Chloro-benzyl)-azetidin-3-ylamino]-2H-isoquinolin-1-one], the IC50 was not above 1000 nM.

Regarding `CCCc1cc2cnccc2cc1SC1CCNCC1` [Example 277, 6-(Piperidin-4-ylsulfanyl)-7-propyl-isoquinoline hydrochloride], the 50% inhibitory concentration (IC50) was not above 1000 nM.

`Clc1cc2cnccc2cc1SCC1CCNCC1` [Example 279, 7-Chloro-6-(piperidin-4-ylmethylsulfanyl)-isoquinoline hydrochloride]: the IC50 was 1000 to 10000 nM.

Regarding `O=c1[nH]ccc2cc(SC3CCNCC3)c(Cl)cc12` [Example 286, 7-Chloro-6-(piperidin-4-ylsulfanyl)-2H-isoquinolin-1-one hydrochloride], the IC50 is not above 1000 nM.

On to `O=c1[nH]ccc2cc(S(=O)(=O)C3CCNCC3)c(Cl)cc12` [Example 288, 7-Chloro-6-(piperidine-4-sulfonyl)-2H-isoquinolin-1-one hydrochloride], for which the half-inhibitory concentration (IC50) is not above 1000 nM.

As to `O=c1[nH]ccc2cc([S+]([O-])C3CCNCC3)c(Cl)cc12` (stereo not shown) [Example 290, 7-Chloro-6-(piperidine-4-sulfinyl)-2H-isoquinolin-1-one hydrochloride], the IC50 is 1000 to 10000 nM.

A word on the IC50: it is the midpoint of a concentration-inhibition curve.

For the origin of these results see patent publication US8748614B2, “Substituted isoquinoline and isoquinolinone derivatives” (Sanofi, priority 2006, dated 2014).
